According to patent US4551460A, “Pyrido[2,1-b]quinazoline derivatives useful as agents for treatment of allergic conditions and vascular disorders involving thrombosis” (priority 1983, dated 1985):
Like-named read-outs stand apart in the source and are kept apart here.

Columns and labels:
[1] = tested on: platelet activating factor induced platelet aggregation; experiment: Platelet activating factor induced platelet aggregation in vitro; format: cell-based; details: racemic platelet activating factor; read-out: PAF (IC50, platelet activating factor induced platelet aggregation)
Procedure: (§1) (1) Assay for Platelet Aggregation In Vitro
(§2) The turbidometric method of G. V. R. Born, Nature 194, 927 (1962) is used. Platelet rich plasma (PRP) and platelet poor plasma (PPP) are prepared with 0.38% sodium citrate-treated blood. Speed and time of centrifugation varied with different species; human:160 g for 20 minutes, dog:160 g for 15 minutes, guinea pig and rabbit:160 g for 15 minutes, and rat:230 g for 10 minutes. Aggregation is monitored with a Payton dual channel module or Chronolog lumiaggregometer when the release of ATP is simultaneously measured. 0.45 ml of PRP is added to a cuvette and prewarmed to 37° C. The stimulant (arachidonic acid or synthetic platelet activating factor) is added in volumes of 50 μl; all other agents in 5 μl. Vehicles are added to samples not containing agents. 0 to 100% light transmission is set with PRP and PPP. % aggregation is calculated from the % increase in light transmission at 5 minutes after the addition of the aggregating agent. For inhibition of aggregation studies the inhibitor is added first and preincubated with the platelets for 1 minute with stirring, followed by the stimulant. % inhibition is calculated from the % aggregation with and without the test compound. [formula]

[2] = tested on: KCl-induced constriction in guinea pig ilea; experiment: Antagonism of KCl-induced constriction in guinea pig ilea
Procedure: (h) Antagonism of KCl-induced Constriction in Guinea Pig Ilea
A 1-1.5 cm segment of guinea pig ileum removed from animals weighing 200-250 g is suspended in an organ bath containing 10 ml of Tyrodes solution with 10^-6 M atropine sulfate and 10^-6 M pyrilamine maleate. The bath is maintained at 37° C. and aerated with a mixture of 95% O2 and 5% CO2. KCl induces isometric constrictions of the ileum at concentrations between 10-30mM. The contractions consist of two phases, an initial fast contraction (the phasic portion), followed by a relaxation down to less intense but more prolonged contraction (the tonic phase). Varying concentrations of test drugs are incubated with the ileum for three minutes prior to KCl-challenge. The drug concentrations, which inhibit by 50% the phasic and tonic portion of the KCl-induced constrictions, are determined (IC50 's).

[3] = target: T1, TXA2 synthase in human platelet microsomes (Homo sapiens, UniProt P24557); experiment: Thromboxane synthase (TXA2 syn.) inhibitory activity; format: biochemical; details: 10 μM PGH2
T1 construct: using microsomal fractions from human platelets as enzyme source; from tissue; host or cells: human platelets, microsomal fraction
T1 sequence (P24557 1-533): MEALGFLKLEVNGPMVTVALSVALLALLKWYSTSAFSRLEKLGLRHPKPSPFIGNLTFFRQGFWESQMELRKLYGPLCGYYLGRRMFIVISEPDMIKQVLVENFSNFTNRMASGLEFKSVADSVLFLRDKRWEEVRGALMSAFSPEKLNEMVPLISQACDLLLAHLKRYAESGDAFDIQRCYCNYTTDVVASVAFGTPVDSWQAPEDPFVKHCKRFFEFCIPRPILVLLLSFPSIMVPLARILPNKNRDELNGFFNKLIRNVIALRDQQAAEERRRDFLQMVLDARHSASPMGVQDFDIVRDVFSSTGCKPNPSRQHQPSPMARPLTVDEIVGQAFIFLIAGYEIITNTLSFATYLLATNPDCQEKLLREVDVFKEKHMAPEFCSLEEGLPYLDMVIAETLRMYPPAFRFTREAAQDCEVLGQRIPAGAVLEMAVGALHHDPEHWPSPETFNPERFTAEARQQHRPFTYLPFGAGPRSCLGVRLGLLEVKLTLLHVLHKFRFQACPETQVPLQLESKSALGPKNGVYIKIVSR
Procedure: (d) Assay for Thromboxane Synthase (TXA2 Syn.) Inhibitory Activity
TXA2 syn. activity is measured by following the conversion of ^14 C-prostaglandin endoperoxide (PGH2) to ^14 C-thromboxane A2 (TXA2) using microsomal fractions from human platelets as enzyme source. In the aqueous incubation medium, the TXA2 decomposes rapidly into TXB2. The amount of TXA2 syn. is adjusted so that under the conditions of the assay approximately 80-90% of the substrate, PGH2, is converted to product in control tubes. To prepare ^14 C-PGH2, ^14 C-AA (50-60 mCi/mmole; Rose Chem.) is incubated with sheep seminal vesicular gland microsomes for 1.5 min at 37° and then the ^14 C-PGH2 is extracted with diethylether, purified on columns of Sephadex LH-20 or silicic acid, and stored in acetone at -70° C. Incubations are done as follows. Sufficient ^14 C-PGH2 to yield a final substrate concentration of 10 μM (~30,000 cpm) is added to the incubation tubes and then the acetone is removed under nitrogen. The tubes are placed in an ice bath and then 215 μl of ice cold phosphate buffered saline, 10 μl of ethanol (control) or of test drug in ethanol, and 25 μl of the microsomal suspension are added with mixing in that order as rapidly as possible. The tubes are incubated at 22° for 2 minutes, the reaction is stopped and then the radioactive products and the uncoverted PGH2 are extracted and analyzed by thin layer chromatography. […] The amount of ^14 C-PGH2 converted to products was used as a measure of TXA2 synthase activity. Inhibitors were tested initially at a final concentration of 100 μM.

[4] = tested on: PAF-induced bronchoconstriction; experiment: Antagonism of PAF-induced bronchoconstriction in the guinea pig; format: in vivo, guinea pig (Hartley strain); details: Cavia porcellus, po, 2 hour pretreatment; read-out: ID50 antagonism of PAF-induced bronchoconstriction
Procedure: (g) Antagonism of PAF and Histamine-induced Bronchoconstriction in Guinea Pig
Spontaneously breathing male guinea pigs (Hartley strain) weighing 300-450 grams are dosed orally with test drug or control vehicle two hours prior to challenge with agonist. The animals are anesthetized with urethane (2 gm/kg) intraperitoneally and the jugular vein and trachea are cannulated. Two hours after dosing, the animal is paralyzed with succinylcholine (1.2 mg/kg, i.v.) and ventilated (Harvard rodent respirator) at 40 breaths/minutes and 2.5 cc tidal volume. Propranolol (0.1 mg/kg, i.v.) is administered and five minutes thereafter the animal is challenged with a constrictory dose of platelet activating factor (10 μg/kg, i.v.) or histamine dihydrochloride (20 μg/kg, i.v.). The change (cm H2 O) between pre and peak ventilatory pressure readings is averaged for three control animals and five drug treated animals. The percent inhibition is calculated from the following formula: (Control-Drug Treated/Control)×100.

[5] = tested on: arachidonic acid induced platelet aggregation; experiment: Arachidonic acid induced platelet aggregation in vitro; format: cell-based; details: read-out: AA (IC50, arachidonic acid induced platelet aggregation)
Procedure: as §1, §2

[6] = phasic, read-out: IC50 antagonism of KCl-induced constriction (phasic)
[7] = tonic, read-out: IC50 antagonism of KCl-induced constriction (tonic)

Row | SMILES | IC50 [1] | IC50 [2, 6] | IC50 [2, 7] | IC50 [3] | ED50 [4] | IC50 [5]
1 | CC(C)c1ccc2nc3ccc(C(=O)NCCCCCCc4cccnc4)cn3c(=O)c2c1 [Compound C, 2-(1-Methylethyl)-N-[6-(3-pyridyl)hexyl]-11-oxo-11H-pyrido[2,1-b]quinazoline-8-carboxamide] | < 10 µM | 5.4 µM | 2.4 µM | 0.1 µM | 50 mg/kg | < 10 µM
2 | CC(C)c1ccc2nc3ccc(C(=O)NCCCCn4ccnc4)cn3c(=O)c2c1 [Compound A, N-[4-(1H-imidazol-1-yl)butyl]-2-(1-methylethyl)-11-oxo-11H-pyrido[2,1-b]quinazoline-8-carboxamide] | > 10 µM | 17 µM | 10 µM | 0.1 to 1 µM | 13 mg/kg | < 10 µM
3 | CC(C)c1ccc2nc3ccc(C(=O)NCCCCc4cccnc4)cn3c(=O)c2c1 [Compound B, 2-(1-methylethyl)-N-[4-(3-pyridyl)butyl]-11-oxo-11H-pyrido[2,1-b]quinazoline-8-carboxamide] | < 10 µM | 13 µM | 8 µM | 0.1 to 1 µM | 100 mg/kg | < 10 µM
